Data reported in US10759797B2, “Pharmaceutically acceptable salt of EGFR inhibitor, crystal form thereof, preparation method therefor and application thereof” (Wuxi Shuangliang Biotechnology Co., Ltd., priority 2017, dated 2020).
Structures can show the parent of a compound that is named as a salt.

Assays:
Assay type in all cases: physicochemical
[1] = Solubility study in water (saturated solutions, HPLC linear equation; Pharmacopoeia and BCS classification); settings: in water and artificial gastric fluid
[2] = as above
From the text: (§1) Various pharmaceutically acceptable salts of EGFR inhibitor present in form of crystal in Examples 1 to 3 and 5 to 6 were classified with reference to the relevant requirements of the Pharmacopoeia of the People's Republic of China and the Bio-pharmaceutics Classification System (BCS).
(§2) (a) Relevant Requirements of Solubility in the Pharmacopoeia of the People's Republic of China, 2015 Edition, General Notices:
(§3) (b) Relevant Requirements of Solubility in BCS: Do=(Mo/Vo)/Cs;
(§4) wherein Do: dose index; Mo: highest single dose of the drug (with reference to the relevant dose of osimertinib, tentatively set to 80 mg); Vo: the volume of body fluid required for dissolving the drug (about 250 ml); Cs: saturated solubility of the drug;
(§5) if Do≤1, solubility is high; and if Do>1, solubility is low.
(§6) Using an EGFR inhibitor free base as a control, linear regression was carried out by plotting peak area versus concentration, and the corresponding linear equation was obtained in the range of 0.025 to 1.5 mg/ml: A=19775.0411c+2.4256, r=1.0000.
Water was used as solvent. An appropriate amount of the EGFR inhibitor mesylate salt, p-toluenesulfonate salt, phosphate salt, hydrochloride salt and citrate salt prepared in Examples 1 to 3 and 5 to 6 was weighed, and prepared into saturated solutions. Samples were taken after standing for 1 hour, 4 hours, and 24 hours, respectively, and the concentration of each sample in saturation state was calculated according to the linear equation.

[3] = Hygroscopicity study of crystal forms (Chinese Pharmacopoeia 2015, part 4, appendix 9103)
Procedure: Hygroscopicity comparison study was carried out for various pharmaceutically acceptable salts of EGFR inhibitor present in the form of crystal in Examples 1 to 3 and 5 to 6, the amorphous EGFR inhibitor phosphate salt in Example 4, and the EGFR inhibitor present in a free base form. Tests were conducted according to the method in the Pharmacopoeia of the People's Republic of China, 2015 edition, part 4, appendix 9103 (temperature: 25° C.±1° C., relative humidity: 80%±2%), and the results were as shown in Table 6.
With regard to the description of hygroscopic properties and definition of hygroscopic weight gain, refer to the Pharmacopoeia of the People's Republic of China, 2015 edition, part 4, appendix 9103, experimental guideline of drug hygroscopicity, herein descried by way of example as follows.
Deliquescence: absorb enough water to form a liquid.
Very hygroscopic: hygroscopic weight gain […] 15%.
Hygroscopic: hygroscopic weight gain less than 15% but not less than 2%.
Non- or almost non-hygroscopic: hygroscopic weight gain less than 0.2%.

[4] = One month accelerated stability study at 40° C./75% RH (shape, purity, XRPD)
Procedure: The six pharmaceutically acceptable salts of EGFR inhibitor in Examples 1 to 6 were placed in a condition of 40° C./75% RH, and a one month accelerated stability study was carried out. Samples were taken at the end of 0 and 1 month respectively, and emphasis was placed upon the shape, purity and crystal form stability (XRPD pattern) of the samples.
Stable refers to no occurrence of degradation and no detection of transformation to other crystal forms by analytical means such as chromatography and XRPD.

[5] = Solubility study in artificial gastric fluid (saturated solutions, HPLC linear equation; Pharmacopoeia and BCS classification)
From the text: as §1, §2, §3, §4, §5, §6
Artificial gastric fluid was used as solvent. An appropriate amount of the EGFR inhibitor mesylate salt (crystal form A), p-toluenesulfonate salt (crystal form B), phosphate salt (crystal form C), phosphate salt (amorphous), hydrochloride salt (crystal form C), and citrate salt (crystal form E) prepared in Examples 1 to 6 was weighed, and prepared into saturated solutions. Samples were taken after standing for 1 hour, 4 hours, and 24 hours, respectively, and the concentration of each sample in saturation state was calculated according to the linear equation.

Solubility with reference to Pharmacopoeia solubility classification [1]: high | Pharmacopoeia of the People's Republic of China Solubility level [2]: freely soluble | BCS level (Do) ([2]; Do=(Mo/Vo)/Cs, Mo 80 mg, Vo about 250 ml, Do≤1 solubility high, Do>1 low): 0.0023 < 1 | Solubility in water, 1 h ([2]; saturated solution, standing 1 hour): 107.15 mg/mL | Solubility in water, 4 h ([2]; saturated solution, standing 4 hours): 133.32 mg/mL | Solubility in water, 24 h ([2]; saturated solution, standing 24 hours): 137.13 mg/mL | Hygroscopicity as compared with that of the EGFR inhibitor present in a free base form ([3]; 25° C./RH 80%): higher hygroscopicity | Weight gain over 6 hours (%) ([3]; 25° C.±1° C., relative humidity 80%±2%, 6 hours): 9.15% | Weight gain over 24 hours (%) ([3]; 25° C.±1° C., relative humidity 80%±2%, 24 hours): 11.98% | Hygroscopicity ([3]; 25° C.±1° C., relative humidity 80%±2%, Pharmacopoeia class): hygroscopic | Appearance, 1 month ([4]; after 1 month at 40° C./75% RH): tan solid | Purity (%), 1 month ([4]; after 1 month at 40° C./75% RH): 98.5% | XRPD pattern (0 month versus 1 month) ([4]; after 1 month at 40° C./75% RH): consistent | Appearance, 0 month ([4]; start of study (0 month)): tan solid | Purity (%), 0 month ([4]; start of study (0 month)): 98.5% | Pharmacopoeia of the People's Republic of China Solubility level ([5]; artificial gastric fluid): freely soluble | Solubility in artificial gastric fluid, 1 h ([5]; artificial gastric fluid, saturated solution, standing 1 hour): 156.70 mg/mL | Solubility in artificial gastric fluid, 4 h ([5]; artificial gastric fluid, saturated solution, standing 4 hours): 159.14 mg/mL | Solubility in artificial gastric fluid, 24 h ([5]; artificial gastric fluid, saturated solution, standing 24 hours): 147.08 mg/mL | BCS level (Do) ([5]; artificial gastric fluid, Do=(Mo/Vo)/Cs, Mo 80 mg, Vo about 250 ml, Do≤1 solubility high, Do>1 low): 0.0022 < 1 | Degradation in the solubility study ([5]; water and artificial gastric fluid, up to 24 hours): no significant degradation
SMILES: C=CC(=O)Nc1cc(Nc2nccc(-c3cn(C)c4cccnc34)n2)c(OC)cc1N(C)CCN(C)C [phosphate salt (crystal form C)]
Solubility in artificial gastric fluid compared with water ([5]; artificial gastric fluid versus water): higher solubility in artificial gastric fluid than in water
